Measurements: ChEMBL document CHEMBL1201862, “PubChem BioAssay data set” (2004)
Activity calls are given as the source filed them.

Legend:
[1] = molecular target: T1, Caspase-6 (Homo sapiens, UniProt P55212); assay: inhibition of CASP6 peptide cleavage – biochemical, VEID-R110 fluorescence, cherry-pick, dose response (AID 720632)
T1 sequence (P55212 whole entry): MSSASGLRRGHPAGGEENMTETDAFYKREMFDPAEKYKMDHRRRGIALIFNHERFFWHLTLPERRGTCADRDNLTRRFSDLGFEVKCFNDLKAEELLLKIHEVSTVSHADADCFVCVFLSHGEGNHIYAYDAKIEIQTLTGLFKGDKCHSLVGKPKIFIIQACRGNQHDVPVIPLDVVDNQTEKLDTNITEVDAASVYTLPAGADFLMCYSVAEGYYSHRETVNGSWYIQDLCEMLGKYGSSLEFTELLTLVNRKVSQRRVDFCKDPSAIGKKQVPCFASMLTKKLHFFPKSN

[2] = molecular target: T2, Long-chain-fatty-acid--AMP ligase FadD28 (Mycobacterium tuberculosis, UniProt P9WQ59); assay: Fluorescence polarization aasay to screen for inhibitors that compete for the binding of FadD28 to a bisubstrate Measured in Biochemical System Using Plate Reader - 2147-01_Inhibitor_Dose_CherryPick_Activity.; format: functional, Mycobacterium tuberculosis H37Rv
T2 sequence (P9WQ59 whole entry): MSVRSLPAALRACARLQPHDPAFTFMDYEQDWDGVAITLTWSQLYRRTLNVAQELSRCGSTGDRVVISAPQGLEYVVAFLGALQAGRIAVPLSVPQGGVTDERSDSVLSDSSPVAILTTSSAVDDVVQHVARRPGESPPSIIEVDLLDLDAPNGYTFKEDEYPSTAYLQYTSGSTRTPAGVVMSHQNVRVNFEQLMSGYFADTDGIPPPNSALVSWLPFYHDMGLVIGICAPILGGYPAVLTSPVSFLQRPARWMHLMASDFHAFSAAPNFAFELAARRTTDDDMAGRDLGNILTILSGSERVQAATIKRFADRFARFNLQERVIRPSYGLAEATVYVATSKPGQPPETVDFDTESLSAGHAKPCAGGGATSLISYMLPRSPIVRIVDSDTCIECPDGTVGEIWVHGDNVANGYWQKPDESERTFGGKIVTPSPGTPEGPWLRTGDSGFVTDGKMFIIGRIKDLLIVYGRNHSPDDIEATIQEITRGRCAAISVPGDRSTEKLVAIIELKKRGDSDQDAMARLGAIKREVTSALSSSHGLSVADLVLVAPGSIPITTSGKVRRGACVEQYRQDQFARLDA

[3] = molecular target: Disintegrin and metalloproteinase domain-containing protein 17 (Homo sapiens, UniProt P78536); assay: inhibition of ADAM17 substrate cleavage – biochemical, quenched FRET substrate, counter-screen for ADAM10 exosite inhibitor project, dose response (AID 743253)
Sequence of Disintegrin and metalloproteinase domain-containing protein 17 (P78536 whole entry, the tested form may be a part): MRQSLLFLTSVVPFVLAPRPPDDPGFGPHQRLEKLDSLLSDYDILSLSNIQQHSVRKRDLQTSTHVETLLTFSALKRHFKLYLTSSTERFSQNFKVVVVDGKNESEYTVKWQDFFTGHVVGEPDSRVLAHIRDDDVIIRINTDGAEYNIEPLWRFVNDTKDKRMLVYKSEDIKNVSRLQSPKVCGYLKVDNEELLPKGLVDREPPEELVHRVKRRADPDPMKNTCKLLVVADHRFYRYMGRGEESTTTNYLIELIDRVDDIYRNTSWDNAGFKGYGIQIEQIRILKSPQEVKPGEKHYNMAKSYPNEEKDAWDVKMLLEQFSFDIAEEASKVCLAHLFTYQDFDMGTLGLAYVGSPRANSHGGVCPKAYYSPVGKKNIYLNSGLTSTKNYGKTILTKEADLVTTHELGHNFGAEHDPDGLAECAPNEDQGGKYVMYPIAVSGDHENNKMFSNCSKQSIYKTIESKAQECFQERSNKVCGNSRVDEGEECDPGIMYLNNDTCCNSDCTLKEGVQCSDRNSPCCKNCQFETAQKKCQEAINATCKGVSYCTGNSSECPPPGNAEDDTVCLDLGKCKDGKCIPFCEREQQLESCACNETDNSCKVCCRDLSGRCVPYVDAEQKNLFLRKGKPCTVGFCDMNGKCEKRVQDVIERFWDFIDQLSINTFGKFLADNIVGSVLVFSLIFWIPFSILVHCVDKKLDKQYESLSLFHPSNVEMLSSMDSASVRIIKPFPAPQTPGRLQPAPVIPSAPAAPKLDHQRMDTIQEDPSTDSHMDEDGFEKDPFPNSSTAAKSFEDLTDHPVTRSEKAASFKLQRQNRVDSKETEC

[4] = potency of ADAM10 substrate cleavage blockers – biochemical, QFRET, dose response (AID 743254);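 note: ADAM10 enzyme with the DM2 quenched FRET peptide as substrate; EDANS fluorescence gain as the protease cuts the substrate; inhibitor potency against ADAM10 proteolytic activity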
[5] = HGIII-sPLA2 enzyme inhibition potency – biochemical, QFRET, IC50, dose response (AID 743457);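 note: green fluorescence rise as the enzyme cleaves BODIPY PC-A2 in liposomes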
[6] = Luminescence Cell-Based Dose Retest to Confirm Inhibitors of Cancer Stem Cells. [Related pubchem assays (depositor defined):AID2717, AID2721]; format: functional; conditions: Homo sapiens

Structure (SMILES) | IC50 [3] | IC50 [4] | further results
CC(=O)Nc1cccc2cc(S(=O)(=O)O)ccc12 |  |  | AC50 [1]: 15.6 µM (active)
Cc1ccc(N/C(C(Cl)=C(Cl)Cl)=C(/Cl)[N+](=O)[O-])c(C)c1 |  |  | AC50 [2]: > 100 µM (inactive)
Cc1ccc(-n2c(SCC(=O)Nc3cccc(S(N)(=O)=O)c3)nc3ccccc32)cc1 | > 69.5 µM (inactive) | > 69.5 µM (inactive) | 
CN(c1ccc(C(=O)NCCSCc2ccccc2)cc1)S(=O)(=O)c1ccccc1 |  |  | AC50 [2]: > 100 µM (inactive)
O=C(NNC(=S)NC(=O)c1ccccc1[N+](=O)[O-])c1ccccc1Cl |  |  | IC50 [5]: 115 µM (inactive)
O=C(NC=NOCc1ccc(Cl)cc1Cl)NOCc1ncc(C(F)(F)F)cc1Cl | > 69.5 µM (inactive) |  | 
Cc1ccc2c(c1)NC(=O)[C@@]1(C)[C@@H](c3ccccc3)[C@H]3COc4ccccc4[C@@H]3N1C2=O | > 69.5 µM (inactive) | > 69.5 µM (inactive) | 
O=C(N=CNOCc1ccc(Cl)cc1Cl)NOCc1ncc(C(F)(F)F)cc1Cl |  | 12.9 µM (inactive) | AC50 [6]: 4.02 µM (active)
